Test results reported in PubChem BioAssay (NCI).
Where “and” joins values, the source holds several entries; their conditions need not be identical. Identical values can stand only once.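 Step 1: Grow cells in 96-well plates. Step 2: Expose to compound for 48 hours at 5 concentrations. Step 3: Interpolate endpoints linearly; if unreached, use highest concentration. Here, GI50 denotes the concentration required for 50% inhibition of growth. TGI is the concentration that stops growth completely.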

How the values were obtained:
Assay in all cases: DTP human tumour cell line panel, 48 h
IGROV1 ovarian = tested on: IGROV1 ovarian
MCF7 breast = tested on: MCF7 breast
SN12C renal = tested on: SN12C renal
SK-MEL-2 melanoma = tested on: SK-MEL-2 melanoma
CAKI-1 renal = tested on: CAKI-1 renal
HCC-2998 colon = tested on: HCC-2998 colon
UO-31 renal = tested on: UO-31 renal
CCRF-CEM leukemia = tested on: CCRF-CEM leukemia
NCI-H23 lung = tested on: NCI-H23 lung
MOLT-4 leukemia = tested on: MOLT-4 leukemia

Row | Structure (SMILES) | GI50 (IGROV1 ovarian) | TGI (IGROV1 ovarian) | GI50 (MCF7 breast) | TGI (MCF7 breast) | GI50 (SN12C renal) | TGI (SN12C renal) | GI50 (SK-MEL-2 melanoma) | TGI (SK-MEL-2 melanoma) | GI50 (CAKI-1 renal) | TGI (CAKI-1 renal) | GI50 (HCC-2998 colon) | TGI (HCC-2998 colon) | GI50 (UO-31 renal) | TGI (UO-31 renal) | GI50 (CCRF-CEM leukemia) | TGI (CCRF-CEM leukemia) | GI50 (NCI-H23 lung) | TGI (NCI-H23 lung) | GI50 (MOLT-4 leukemia) | TGI (MOLT-4 leukemia)
1 | N#CSCC1CC(O)(c2ccccc2)C(c2ccccc2)C(c2ccc(F)cc2)O1 (stereo not given) | 1.69 µM | 7.6 µM | 2.8 µM | 11.6 µM | 2.05 µM | 5.27 µM | 2.69 µM | 7.78 µM | 2.39 µM | 5.46 µM | 10.7 µM | 23 µM | 2.62 µM | 11.9 µM | 3.09 µM | > 100 µM | 3.21 µM | 11.1 µM | 0.676 µM | 4.51 µM
2 | COC[C@H]1OC(=O)c2coc3c2[C@@]1(C)C1=C(C3=O)[C@@H]2CCC(=O)[C@@]2(C)C[C@H]1OC(C)=O |  | 19.3 µM |  | > 100 µM |  | > 100 µM |  | 16.6 µM |  |  |  | 20 µM |  | > 72.8 µM |  | > 53.5 µM |  | > 100 µM |  | 42.3 µM
3 | Cc1cc(-c2nc3ccc(O)cc3s2)ccc1N | 47.5 µM | > 100 µM | 56.5 µM | > 100 µM | 39 µM | > 100 µM | > 100 µM | > 100 µM |  | > 100 µM | > 100 µM | > 100 µM | 21.6 µM | > 100 µM | 0.797 µM | > 100 µM | 12.5 µM | 43.7 µM | 27.1 µM | > 100 µM
4 | C#CC[C@H](c1nc2cc(Cl)ccc2c(=O)n1Nc1ccccc1)N(CCCN)C(=O)c1cccc(Cl)c1F | 0.979 µM | 5.8 µM | 0.0337 µM | 1.36 µM | 0.205 µM | 1.98 µM | 0.177 µM | 1.29 µM | 2.6 µM | 8.19 µM | 0.178 µM | 1.39 µM | 2.94 µM | 8.07 µM | 0.134 µM | 1.91 µM | 0.624 µM | 11.2 µM | 0.264 µM | 2.8 µM
5 | Cn1c2ccccc2c2nnc(N/N=C/c3ccccn3)nc21 | 0.44 µM | > 23.6 µM | 0.285 µM | 6.59 µM | 0.286 µM |  | 0.953 µM | 16.9 µM | 0.264 µM | 1.19 µM | 0.529 µM | > 63.8 µM | 0.361 µM | 5.3 µM | 0.301 µM | > 33.1 µM | 0.382 µM | > 22.6 µM | 0.271 µM | 
6 | COc1ccc(C2=C(c3cn(C)c4ccccc34)C(=O)NC2=O)cc1OC | 7.99 µM | > 25 µM | 5.75 µM | > 25 µM | 8.91 µM | > 25 µM | 6.18 µM | > 18.6 µM | 5.78 µM | > 25 µM | > 22.3 µM | > 25 µM | 4.83 µM | > 25 µM | 6.38 µM | > 25 µM | 10.3 µM | > 25 µM | 8.84 µM | > 25 µM
7 | Cc1ccc2c(=O)[nH]sc2c1 |  | 35.3 µM |  | 36.1 µM |  | 22.7 µM |  | > 100 µM |  | 17.8 µM |  | 36.9 µM |  |  |  | 13.9 µM |  | 42.4 µM |  | 23.8 µM
8 | C=C(CN1CCN(c2ccccc2F)CC1)c1ccc(C(=O)Nc2ccccc2N)cc1 | 0.571 µM | 4.96 µM | 0.889 µM | > 100 µM | 1.82 µM | 40.9 µM | 8.5 µM | > 100 µM | 1.81 µM | 7.18 µM | 3.2 µM | 17.7 µM | 1.32 µM | 17.3 µM |  |  | 1.87 µM | 8.88 µM | 0.549 µM | 4.86 µM
9 | CC1(C)N=C(N)N=C(N)N1c1cccc(CCCCc2ccc(S(=O)(=O)F)cc2Cl)c1 | 0.313 µM | > 38.5 µM | 0.577 µM | 15.7 µM | 0.834 µM | 22.5 µM | 6.42 µM | > 58.5 µM | 9.21 µM | > 100 µM | 5.47 µM | 38.8 µM | 14.6 µM | > 100 µM | 3.29 µM | 36.5 µM | 4.27 µM | 27.3 µM | 7.42 µM | > 65.3 µM
10 | c1cncc(CNc2ccccc2-c2nnc(Nc3ccc4c(c3)OCCO4)o2)c1 | 0.5 µM | > 100 µM | 0.291 µM | > 100 µM | 0.482 µM | > 100 µM | 0.217 µM | > 100 µM | 0.215 µM | > 100 µM | 0.255 µM |  | 4.69 µM | > 100 µM | 0.126 µM | 51.4 µM | 0.226 µM | > 100 µM | 0.435 µM | 15.5 µM
11 | Cc1nn2c(/C=C3/C(=O)Nc4ccc(Cl)cc43)c(-c3ccccc3)nc2s1 | 1.51 µM | 10.2 µM | 3.85 µM | 25 µM | 3.95 µM | 18.4 µM | 4.04 µM | 18.4 µM | 1.92 µM | 6.3 µM | 9.59 µM | 37 µM | 1.07 µM | 13.2 µM | 4.06 µM | 23.7 µM | 4.1 µM | > 100 µM | 6.96 µM | 37.1 µM
12 | Cc1ccc(C(=O)N/N=C/c2cccc(Oc3ccccc3)c2)cn1 | 19 µM | > 100 µM | 3.48 µM | > 100 µM | 17.3 µM | > 100 µM | > 24.6 µM | > 100 µM | 4.41 µM | > 100 µM | 16.1 µM | > 100 µM | 19.6 µM | > 100 µM | 4.25 µM | > 100 µM | 26.6 µM | > 100 µM | 3.83 µM | 34.5 µM
13 | CCN(CC)CCCC(C)Nc1cnc(C(=O)Nc2cc(F)cc3cccnc23)cn1 (stereo not given) | 3.03 µM and 0.379 µM | 12 µM and 1.4 µM | 2.1 µM | 6.91 µM | 6.4 µM and 1.23 µM | 19.3 µM and 2.54 µM | 3.78 µM and 2.55 µM | 10.8 µM and 6.39 µM | 2.89 µM and 2.05 µM | 15.4 µM and 5.71 µM | 5.01 µM and 1.53 µM | 18.4 µM and 2.97 µM | 4.12 µM and 0.933 µM | 17.1 µM and 2.23 µM | 2.55 µM and 0.478 µM | 10.6 µM |  |  | 1.94 µM and 0.496 µM | 6.53 µM and > 43 µM
14 | CO/N=C1/NC(=O)/C(=C/c2ccc3ncccc3c2)S1 | 4.78 µM | 15.9 µM | 4.45 µM | > 25 µM | 16.3 µM | > 25 µM | 12.1 µM | > 25 µM | 8.49 µM | > 25 µM | > 25 µM | > 25 µM | 4.99 µM | > 22.7 µM | 10.9 µM | > 25 µM | 12.2 µM | > 25 µM | 16.1 µM | > 25 µM
